This is an account of results in ChEMBL document CHEMBL2203251, “Discovery of two clinical histamine H(3) receptor antagonists: trans-N-ethyl-3-fluoro-3-[3-fluoro-4-(pyrrolidinylmethyl)phenyl]cyclobutanecarboxamide (PF-03654746) and trans-3-fluoro-3-[3-fluoro-4-(pyrrolidin-1-ylmethyl)phenyl]-N-(2-methylpropyl)cyclobutanecarboxamide (PF-03654764)” (J Med Chem, 2011).

Molecules are shown by their SMILES. Where “and” joins values, the source holds several entries; their conditions need not be identical. Equal entries are not always repeated. Some results are limits rather than exact numbers.

The subject of one data set is Liver microsomes. As to conditions: human.
The target in data set [1] is T1, Histamine H3 receptor (Rattus norvegicus, UniProt Q9QYN8).
Description: Displacement of [3H]-n-alpha-methylhistamine from rat histamine H3 receptor homogenate after 60 mins by scintillation counting
For data set [2], the target named is T2, Histamine H3 receptor (Homo sapiens, UniProt Q9Y5N1).
Description: Displacement of [3H]-n-alpha-methylhistamine from human histamine H3 receptor homogenate after 60 mins by scintillation counting
Data set [3] is described as follows: in vitro. As to conditions: human, Caco-2.
Description: Permeability across apical to basolateral side in human Caco2 cells at 2 uM
A short description of data set [4]: in vitro. As to conditions: human, plasma.
Description: Fraction unbound in human plasma
The nature of data set [5]: AUC in beagle dog at 30 mg/kg, po administered for 7 days. As to conditions: plasma. It counts as ADME, organism-based, Canis lupus familiaris. Also noted: dose 30 mg/kg, route oral.
Data set [6] is described as follows: in vivo. As to conditions: beagle, dog, plasma, po.
Description: AUC (0 to 24 hrs) in po dosed beagle dog administered for 7 days
The subject of data set [7] is Canis familiaris. As to the kind of experiment: Toxicity in beagle dog assessed as convulsion at 50 mg/kg, po administered for 7 days measured on day 2. The format is organism-based, Canis lupus familiaris. Also noted: dose 50 mg/kg, route oral. As to conditions: in vivo, 168 h.
Data set [8] has as its target T2, Histamine H3 receptor. The source holds these as a separate data set.
Description: Antagonist activity at human histamine H3 receptor expressed in human HEK293 cells assessed as inhibition of forskolin-induced cAMP release pretreated 10 mins prior forskolin stimulation measured after 4.5 hrs by spectrofluorimetric analysis
A further data set concerns MDR1 (human). The data set can be described thus: in vitro. As to conditions: dog, MDCK-MDR1.
Data set [9] is described as follows: in vitro. As to conditions: human, liver microsomes. (In general: Liver microsomes are a subcellular fraction often used to study metabolism.)
Description: Half life in human liver microsomes
The nature of data set [10]: in vivo. As to conditions: Sprague-Dawley, rat, po.
Description: Toxicity in po dosed Sprague-Dawley rat administered for 14 days
Data set [11] concerns the target T1, Histamine H3 receptor. The source holds these as a separate data set.
Description: Antagonist activity at rat histamine H3 receptor expressed in human HEK293 cells assessed as inhibition of forskolin-induced cAMP release pretreated 10 mins prior forskolin stimulation measured after 4.5 hrs by spectrofluorimetric analysis
The conditions of data set [12]: human, thle, 24 h.
Description: Toxicity in human THLE cells assessed as drug-induced phospholipid accumulation after 24 hrs by Hoechst staining-based microscopic analysis
Data set [13] is described as follows: AUC in Sprague-Dawley rat at 10 to 300 mg/kg, po administered for 14 days measured on day 1. Also on record: dose 10-300 mg/kg, route oral. The format is ADME, organism-based. As to conditions: plasma.
For data set [14], the system named is Canis familiaris. As to the kind of experiment: Toxicity in beagle dog assessed as testicular degradation at 30 mg/kg, po administered for 7 days. The format is organism-based, Canis lupus familiaris. Also on record: dose 30 mg/kg, route oral. As to conditions: in vivo, 168 h.
The nature of data set [15]: in vivo. As to conditions: Sprague-Dawley, rat, plasma, po.
Description: AUC (0 to 24 hrs) in po dosed Sprague-Dawley rat administered for 14 days
Data set [16] in a line: in vivo. As to conditions: Sprague-Dawley, rat, po. This is another data set of the same source.
Description: Tmax in po dosed Sprague-Dawley rat administered for 4 days
Data set [17] is described as follows: in vivo. As to conditions: beagle, dog, po, 50 mg/kg.
A short description of data set [18]: AUC in beagle dog at 50 mg/kg, po administered for 7 days measured on day 1. It counts as ADME, organism-based, Canis lupus familiaris. Also noted: dose 50 mg/kg, route oral. As to conditions: plasma.
A short description of data set [19]: in vivo. As to conditions: beagle, dog, po.
Description: Cmax in po dosed beagle dog administered for 7 days
Data set [20] can be described thus: in vivo. As to conditions: beagle, dog, po. This is another data set of the same source.
Description: Toxicity in po dosed beagle dog administered for 7 days
The nature of data set [21]: in vivo. As to conditions: beagle, dog, po. The source holds these as a separate data set.
Description: Tmax in po dosed beagle dog administered for 7 days
Data set [22] in a line: in vivo. As to conditions: Sprague-Dawley, rat, po. The source holds these as a separate data set.
Description: Cmax in po dosed Sprague-Dawley rat administered for 14 days
Data set [23] concerns Canis familiaris. The data set can be described thus: Toxicity in beagle dog assessed as compound-induced cadiomyocyte vacuole formation at 30 mg/kg, po administered for 7 days. The format is organism-based, Canis lupus familiaris. Also on record: dose 30 mg/kg, route oral. As to conditions: in vivo, 168 h.
Data set [24] can be described thus: in vivo. As to conditions: Sprague-Dawley, rat, po. The source holds these as a separate data set.
Description: Tmax in po dosed Sprague-Dawley rat administered for 14 days
Data set [25] relates to Rattus norvegicus. As to the kind of experiment: Toxicity in Sprague-Dawley rat assessed as salivation at >= 100 mg/kg, po administered for 14 days. As to conditions: in vivo, 336 h. The format is organism-based. Also on record: dose 100 mg/kg, route oral.
For data set [26], the species on record is Homo sapiens. The data set can be described thus: Selectivity ratio of Ki for human histamine H4 receptor to Ki for human histamine H3 receptor.
For data set [27], the species on record is Homo sapiens. The data set can be described thus: Selectivity ratio of Ki for human histamine H2 receptor to Ki for human histamine H3 receptor.
The species named for data set [28] is Homo sapiens. The data set can be described thus: Selectivity ratio of Ki for human histamine H1 receptor to Ki for human histamine H3 receptor.
Data set [29] concerns Rattus norvegicus. As to the kind of experiment: Toxicity in Sprague-Dawley rat assessed as decrease in food intake at 300 mg/kg, po administered for 14 days. The format is organism-based. Also noted: dose 300 mg/kg, route oral. As to conditions: in vivo, 336 h.
The nature of data set [30]: in vitro. As to conditions: rat, plasma.
Description: Fraction unbound in rat plasma
Data set [31] deals with Rattus norvegicus. As to the kind of experiment: Toxicity in Sprague-Dawley rat assessed as decrease in body weight at 300 mg/kg, po administered for 14 days. Also noted: dose 300 mg/kg, route oral. The format is organism-based. As to conditions: in vivo, 336 h.
A short description of data set [32]: Ratio of drug uptake in brain to plasma of Sprague-Dawley rat. The format is ADME. As to conditions: read-out: BPR.
The nature of data set [33]: in vivo. As to conditions: Sprague-Dawley, rat, po. This is another data set of the same source.
Description: Oral bioavailability in Sprague-Dawley rat
Data set [34] has as its system Canis familiaris. As to the kind of experiment: Toxicity in beagle dog assessed as convulsion at 30 mg/kg, po administered for 7 days measured on day 3. It counts as organism-based, Canis lupus familiaris. Also noted: dose 30 mg/kg, route oral. As to conditions: in vivo, 168 h.
A short description of data set [35]: AUC in Sprague-Dawley rat at 300 mg/kg, po administered for 14 days. As to conditions: plasma. It counts as ADME, organism-based. Also on record: dose 300 mg/kg, route oral.

The term Ki denotes the equilibrium dissociation constant of an inhibitor or competing ligand from its target. Low values mean higher affinity, high ones lower affinity. In general, Papp A→B refers to the apparent permeability from the apical to the basolateral side of a cell layer. As usually defined, the fraction unbound is the share of the substance not bound to proteins or other matrix. Lower therefore signals extensive binding. As usually defined, the AUC is the area under the concentration-time curve, a measure of exposure. Read a low AUC as less exposure. The term efflux ratio denotes a quotient of directional permeabilities that is used to spot active efflux. A word on the half-life: it is how long it takes for the measured level to halve. A word on the pKa: it is the pH at which an ionisable group is half protonated. The term Tmax denotes the time from dosing to the highest level. One may read the Cmax as the highest concentration seen after dosing. One may read the bioavailability as the share of a dose that reaches the circulation, judged against a reference dose that is usually intravenous. Low readings indicate poor availability, high ones good availability.

T2 sequence (Q9Y5N1 whole entry): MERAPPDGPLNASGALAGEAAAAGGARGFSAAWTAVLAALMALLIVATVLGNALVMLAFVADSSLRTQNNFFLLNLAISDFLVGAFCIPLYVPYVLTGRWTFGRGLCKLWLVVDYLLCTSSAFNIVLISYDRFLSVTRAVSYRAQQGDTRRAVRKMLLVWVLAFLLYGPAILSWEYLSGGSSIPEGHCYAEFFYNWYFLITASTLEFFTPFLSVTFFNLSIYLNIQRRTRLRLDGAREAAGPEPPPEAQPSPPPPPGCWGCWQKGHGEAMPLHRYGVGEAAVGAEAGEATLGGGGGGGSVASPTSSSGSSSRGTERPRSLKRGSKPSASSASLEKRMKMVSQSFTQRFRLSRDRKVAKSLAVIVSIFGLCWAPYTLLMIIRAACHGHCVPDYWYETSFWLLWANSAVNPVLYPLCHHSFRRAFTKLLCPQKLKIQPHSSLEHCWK
T1 sequence (Q9QYN8 whole entry): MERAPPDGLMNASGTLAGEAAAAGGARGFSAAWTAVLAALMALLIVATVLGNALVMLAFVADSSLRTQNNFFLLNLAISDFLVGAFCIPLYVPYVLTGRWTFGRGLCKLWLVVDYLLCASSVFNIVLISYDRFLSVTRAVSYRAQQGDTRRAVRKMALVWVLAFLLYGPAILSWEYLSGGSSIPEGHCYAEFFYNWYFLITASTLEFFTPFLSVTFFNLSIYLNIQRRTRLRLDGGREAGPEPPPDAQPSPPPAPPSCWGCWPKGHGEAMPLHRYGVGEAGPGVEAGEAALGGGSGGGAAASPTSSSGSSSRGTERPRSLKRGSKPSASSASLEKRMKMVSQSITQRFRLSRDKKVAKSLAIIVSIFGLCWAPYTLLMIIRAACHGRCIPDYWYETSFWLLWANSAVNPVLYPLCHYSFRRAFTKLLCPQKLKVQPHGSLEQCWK
Description for Liver microsomes: Unbound intrinsic clearance in human liver microsomes
Description for MDR1 (human): Efflux ratio of permeability across basal to apical side over apical to basolateral side in dog MDCK cells expressing human MDR1
Description for physchem: Dissociation constant, pKa of the compound

`CN(C)Cc1ccc(-c2ccc(CN(C)C)cc2)cc1` came in with a CL free in the data set on Liver microsomes of 219 mL/min/kg. Further, the Ki on Histamine H3 receptor [1] turned out to be 9.3 nM; at Histamine H3 receptor [2] it was 1.3 nM.
`CC(=O)N(C)C[C@H]1C[C@H](c2ccc(CN3CCCC3)c(Cl)c2)C1`: the Papp A→B at 2 µM in the data set “in vitro [3]” amounted to 53.4 ×10⁻⁶ cm/s. The fraction unbound in the data set “in vitro [4]” was found to be 0.24. The exposure (AUC) at 168 h in [5] stood at 2910 ng·h/mL; in data set [18], 4780 ng·h/mL. For the same molecule, the AUC at 24 h in “in vivo [6]” is 2910 ng·h/mL; in “in vivo [15]”, 4440 ng·h/mL. For the same molecule, in the data set on Liver microsomes, the CL free is below 8 mL/min/kg. The Activity entry in the data set on Canis familiaris [7], with Canis familiaris [14] and with Canis familiaris [23] was “Toxic” throughout. Also, the inhibitory constant (Ki) on Histamine H3 receptor [8] is 3.3 nM; at Histamine H3 receptor [1], 160 nM; at Histamine H3 receptor [11], 21 nM; at Histamine H3 receptor [2] it was 14 nM and 12.9 nM. Besides, the efflux ratio with MDR1 (human) came out at 1.27. The molecule also displayed a half-life in “in vitro [9]” above 120 min. Besides, the MTD at 336 h in “in vivo [10]” was at least 300 mg/kg. For the same molecule, the MED in data set [12] is 245.3 µM. This molecule also gave an AUC at 336 h in [13] of at most 4440 ng·h/mL. Also, the pKa in “physchem” was 9.3. Further, in “in vivo [16]”, the Tmax at 96 h is 30 min. This molecule also gave a Cmax in “in vivo [17]” of 3200 ng/mL. Moreover, the highest level in the data set “in vivo [19]” (Cmax at 168 h) was 5.13 µM. Further, the MTD at 168 h in “in vivo [20]” is below 30 mg/kg. The Tmax at 168 h in the data set “in vivo [21]” amounted to 30 min. Besides, in “in vivo [22]”, the Cmax at 336 h turned out to be 6.29 µM. For the same molecule, in “in vivo [24]”, the Tmax at 336 h came to 30 min.
In the case of `CCNC(=O)[C@H]1C[C@@](F)(c2ccc(CN3CCCC3)c(F)c2)C1` [PF-03654746], the apparent permeability from apical to basolateral (Papp A→B) at 2 µM in the data set “in vitro [3]” stood at 44.7 ×10⁻⁶ cm/s. In addition, the Activity result in the data set on Rattus norvegicus [25], in the data set with Rattus norvegicus [29], in the data set on Rattus norvegicus [31] and in the data set on Canis familiaris [34] was “Toxic” in each case. The unbound share (fraction unbound) in “in vitro [4]” is 0.66; in “in vitro [30]”, 0.7. The Ratio Ki in the data set listed under Homo sapiens [26], in the data set filed under Homo sapiens [27] and in the data set listed under Homo sapiens [28] was above 1000 each time. Besides, the values for the exposure (AUC) at 24 h in the data set “in vivo [6]” and in the data set “in vivo [15]” were 18900 ng·h/mL and 189000 ng·h/mL, respectively. Besides, in the data set on Liver microsomes, the CL free is below 5 mL/min/kg. Also, the Ki at Histamine H3 receptor [8] came to 1.7 nM; at Histamine H3 receptor [1], 37 nM; on Histamine H3 receptor [11], 8.9 nM; on Histamine H3 receptor [2], 2.3 nM. Besides, the efflux ratio with MDR1 (human) was 1.1. Also, in the data set “in vitro [9]”, the half-life is above 120 min. This molecule returned an MTD at 336 h in the data set “in vivo [10]” of 30 mg/kg. Moreover, the MED in data set [12] came out at 302.4 µM. Further, in [32], the Kp came to 2.1. The molecule further yielded a bioavailability in the data set “in vivo [33]” of 25.9%. In “physchem”, this molecule had a pKa of 9.2. In the data set “in vivo [16]”, the Tmax at 96 h is 30 min. Also, in “in vivo [19]”, the Cmax at 168 h was found to be 13 µM. This molecule showed an MTD at 168 h in the data set “in vivo [20]” of at least 15 mg/kg. In [35], this molecule had an AUC at 336 h of 189000 ng·h/mL. The time to peak (Tmax) at 168 h in the data set “in vivo [21]” was found to be 30 min. The molecule also returned a Cmax at 336 h in “in vivo [22]” of 43.5 µM. For the same molecule, the time of peak concentration (Tmax) at 336 h in the data set “in vivo [24]” came out at 30 min.
